Experimental data taken from patent US20120328569A1, “INHIBITORS OF HEPATITIS C VIRUS NS5B POLYMERASE” (priority 2010, published 2012).

test system: HCV genotype 1b replicon; experiment: HCV replicon assay, cell ELISA with antibody to replicon-encoded NS3/4A (genotype 1b replicon); type: cell-based, hepatitis C virus; conditions: Hepatitis C virus, 96 h, read-out: Replicon 1b IC50 (nM), HCV genotype 1b replicon cells, 96 hours incubation, NS3/4A ELISA readout
Procedure, shortened: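 An ELISA on lysed cells, using an antibody against NS3/4A protease, served as the proxy for replicon RNA. Cells had first been exposed for 96 h to serially diluted compound in G418-free conditions. Percent of DMSO control was fitted with a four-parameter function to give IC50.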

Point of comparison: CNC(=O)c1c(-c2ccc(F)cc2)oc2cc(N(C)S(C)(=O)=O)c(-c3cc(F)cc(-c4nc5cccnc5o4)c3)cc12 [Example 218], IC50 1.8 nM. Against it:
- CNC(=O)c1c(-c2ccc(F)cc2)oc2cc(N(C)S(C)(=O)=O)c(-c3cc(F)cc(-c4nc5ncc(Cl)cc5o4)c3)cc12 [Example 199] — 1.6-fold higher, 2.9 nM
- CNC(=O)c1c(-c2ccc(F)cc2)oc2cc(N(C)S(C)(=O)=O)c(-c3ccc(F)c(-c4nc5ncccc5o4)c3)cc12 [Example 200] — within 1.5-fold, 1.6 nM
- CNC(=O)c1c(-c2ccc(F)cc2)oc2cc(N(C)S(C)(=O)=O)c(-c3cccc(-c4nc5ncc(F)cc5o4)c3)cc12 [Example 201] — within 1.5-fold, 1.7 nM
- CNC(=O)c1c(-c2ccc(F)cc2)oc2cc(N(C)S(C)(=O)=O)c(-c3cccc(-c4nc5ncc(Cl)cc5o4)c3)cc12 [Example 202] — 1.8-fold lower, 1 nM
- CNC(=O)c1c(-c2ccc(F)cc2)oc2cc(N(C)S(C)(=O)=O)c(-c3cc(Cl)cc(-c4nc5ncccc5o4)c3)cc12 [Example 203] — within 1.5-fold, 2.4 nM
- CNC(=O)c1c(-c2ccc(F)cc2)oc2cc(N(C)S(C)(=O)=O)c(-c3cc(-c4nc5ncccc5o4)ccc3Cl)cc12 [Example 204] — 2.5-fold higher, 4.5 nM
- CNC(=O)c1c(-c2ccc(F)cc2)oc2cc(N(C)S(C)(=O)=O)c(-c3cccc(-c4nc5ncccc5o4)c3OC)cc12 [Example 205] — 6.6-fold higher, 11.9 nM
- CNC(=O)c1c(-c2ccc(F)cc2)oc2cc(N(C)S(C)(=O)=O)c(-c3ccc(OC(F)(F)F)c(-c4nc5ncccc5o4)c3)cc12 [Example 206] — within 1.5-fold, 2.1 nM
- CNC(=O)c1c(-c2ccc(F)cc2)oc2cc(N(C)S(C)(=O)=O)c(-c3cc(-c4nc5ncccc5o4)c(OC)cc3F)cc12 [Example 207] — within 1.5-fold, 2.4 nM
- CNC(=O)c1c(-c2ccc(F)cc2)oc2cc(N(C)S(C)(=O)=O)c(-c3ccc(C)c(-c4nc5ncccc5o4)c3)cc12 [Example 208] — the same, 1.8 nM
- CNC(=O)c1c(-c2ccc(F)cc2)oc2cc(N(C)S(C)(=O)=O)c(-c3cc(C#N)cc(-c4nc5ncccc5o4)c3)cc12 [Example 209] — 3.1-fold higher, 5.5 nM
- CNC(=O)c1c(-c2ccc(F)cc2)oc2cc(N(C)S(C)(=O)=O)c(-c3cc(C)cc(-c4nc5ncccc5o4)c3)cc12 [Example 210] — within 1.5-fold, 1.9 nM
- CNC(=O)c1c(-c2ccc(F)cc2)oc2cc(N(C)S(C)(=O)=O)c(-c3cccc(-c4nc5cnccc5o4)c3)cc12 [Example 211] — 1.8-fold higher, 3.3 nM
- CNC(=O)c1c(-c2ccc(F)cc2)oc2cc(N(C)S(C)(=O)=O)c(-c3cc(F)cc(-c4nc5cnccc5o4)c3)cc12 [Example 212] — within 1.5-fold, 2.6 nM
- CNC(=O)c1c(-c2ccc(F)cc2)oc2cc(N(C)S(C)(=O)=O)c(-c3ccc(F)c(-c4nc5cnccc5o4)c3)cc12 [Example 213] — within 1.5-fold, 2.5 nM
- CNC(=O)c1c(-c2ccc(F)cc2)oc2cc(N(C)S(C)(=O)=O)c(-c3cc(-c4nc5cnccc5o4)ccc3F)cc12 [Example 214] — 3.5-fold higher, 6.3 nM
- CNC(=O)c1c(-c2ccc(F)cc2)oc2cc(N(C)S(C)(=O)=O)c(-c3ccc(Cl)c(-c4nc5cnccc5o4)c3)cc12 [Example 215] — within 1.5-fold, 2.1 nM
- CNC(=O)c1c(-c2ccc(F)cc2)oc2cc(N(C)S(C)(=O)=O)c(-c3cccc(-c4nc5ccncc5o4)c3)cc12 [Example 216] — 4.6-fold higher, 8.2 nM
- CNC(=O)c1c(-c2ccc(F)cc2)oc2cc(N(C)S(C)(=O)=O)c(-c3cccc(-c4nc5cccnc5o4)c3)cc12 [Example 217] — within 1.5-fold, 2.1 nM
- CNC(=O)c1c(-c2ccc(F)cc2)oc2cc(N(C)S(C)(=O)=O)c(-c3cc(F)cc(-c4nc5cc(Cl)cnc5o4)c3)cc12 [Example 219] — 1.7-fold higher, 3 nM
- CNC(=O)c1c(-c2ccc(F)cc2)oc2cc(N(C)S(C)(=O)=O)c(-c3cc(F)cc(-c4nc5cc(F)cnc5o4)c3)cc12 [Example 220] — within 1.5-fold, 1.5 nM
- CNC(=O)c1c(-c2ccc(F)cc2)oc2cc(N(C)S(C)(=O)=O)c(-c3ccc(F)c(-c4nc5cccnc5o4)c3)cc12 [Example 221] — within 1.5-fold, 1.7 nM
- CNC(=O)c1c(-c2ccc(F)cc2)oc2cc(N(C)S(C)(=O)=O)c(-c3cc(-c4nc5cccnc5o4)ccc3F)cc12 [Example 222] — 1.9-fold higher, 3.5 nM
- CNC(=O)c1c(-c2ccc(F)cc2)oc2cc(N(C)S(C)(=O)=O)c(-c3cccc(-c4nc5cc(Cl)cnc5o4)c3)cc12 [Example 223] — 5.6-fold higher, 10 nM
- CNC(=O)c1c(-c2ccc(F)cc2)oc2cc(N(C)S(C)(=O)=O)c(-c3cccc(-c4nc5cc(F)cnc5o4)c3)cc12 [Example 224] — within 1.5-fold, 2.3 nM
- CNC(=O)c1c(-c2ccc(F)cc2)oc2cc(N(C)S(C)(=O)=O)c(-c3ccc(OC)c(-c4nc5cccnc5o4)c3)cc12 [Example 225] — 2-fold higher, 3.6 nM
- CNC(=O)c1c(-c2ccc(F)cc2)oc2cc(N(C)S(C)(=O)=O)c(-c3ccc(OC)c(-c4nc5cc(Cl)cnc5o4)c3)cc12 [Example 226] — 2.2-fold higher, 4 nM
- CNC(=O)c1c(-c2ccc(F)cc2)oc2cc(N(C)S(C)(=O)=O)c(-c3ccc(OC)c(-c4nc5cc(F)cnc5o4)c3)cc12 [Example 227] — within 1.5-fold, 2.2 nM
- CNC(=O)c1c(-c2ccc(F)cc2)oc2cc(N(C)S(C)(=O)=O)c(-c3ccc(Cl)c(-c4nc5cccnc5o4)c3)cc12 [Example 228] — 1.8-fold higher, 3.2 nM
- CNC(=O)c1c(-c2ccc(F)cc2)oc2cc(N(C)S(C)(=O)=O)c(-c3cc(Cl)cc(-c4nc5cccnc5o4)c3)cc12 [Example 229] — 2.1-fold higher, 3.7 nM
- CNC(=O)c1c(-c2ccc(F)cc2)oc2cc(N(C)S(C)(=O)=O)c(-c3cc(-c4nc5cccnc5o4)ccc3Cl)cc12 [Example 230] — 4.6-fold higher, 8.3 nM
- CNC(=O)c1c(-c2ccc(F)cc2)oc2cc(N(C)S(C)(=O)=O)c(-c3ccc(OC(F)(F)F)c(-c4nc5cccnc5o4)c3)cc12 [Example 231] — 3.7-fold higher, 6.6 nM
- CNC(=O)c1c(-c2ccc(F)cc2)oc2cc(N(C)S(C)(=O)=O)c(-c3cc(F)c(OC)c(-c4nc5ncccc5o4)c3)cc12 [Example 232] — within 1.5-fold, 2.4 nM
- CNC(=O)c1c(-c2ccc(F)cc2)oc2cc(N(C)S(C)(=O)=O)c(-c3cc(F)c(OC)c(-c4nc5cccnc5o4)c3)cc12 [Example 233] — 1.6-fold higher, 2.9 nM
- CNC(=O)c1c(-c2ccc(F)cc2)oc2cc(N(C)S(C)(=O)=O)c(-c3cc(OC)c(OC)c(-c4nc5ncccc5o4)c3)cc12 [Example 234] — 1.5-fold higher, 2.7 nM
- CNC(=O)c1c(-c2ccc(F)cc2)oc2cc(N(C)S(C)(=O)=O)c(-c3cc(OC)c(OC)c(-c4nc5cccnc5o4)c3)cc12 [Example 235] — 2.2-fold higher, 4 nM
- CNC(=O)c1c(-c2ccc(F)cc2)oc2cc(N(C)S(C)(=O)=O)c(-c3ccc(OCCO)c(-c4nc5ncccc5o4)c3)cc12 [Example 237] — within 1.5-fold, 2.6 nM
- CNC(=O)c1c(-c2ccc(F)cc2)oc2cc(N(C)S(C)(=O)=O)c(-c3ccc(OC)c(-c4nc5ncccc5o4)c3)cc12 [Example 238] — 1.6-fold higher, 2.9 nM
- CNC(=O)c1c(-c2ccc(F)cc2)oc2cc(N(C)S(C)(=O)=O)c(-c3ccc(OC)c(-c4nc5ncc(Cl)cc5o4)c3)cc12 [Example 239] — within 1.5-fold, 2.6 nM
- CNC(=O)c1c(-c2ccc(F)cc2)oc2cc(N(C)S(C)(=O)=O)c(-c3cccc(-c4nc5nccnc5o4)c3)cc12 [Example 240] — within 1.5-fold, 1.9 nM
- CNC(=O)c1c(-c2ccc(F)cc2)oc2cc(N(C)S(C)(=O)=O)c(-c3cccc(-c4nc5ncncc5o4)c3)cc12 [Example 241] — 5.3-fold higher, 9.5 nM
- CNC(=O)c1c(-c2ccc(F)cc2)oc2cc(N(C)S(C)(=O)=O)c(-c3cccc(-c4nc5cncnc5o4)c3)cc12 [Example 242] — 2.7-fold higher, 4.8 nM
- CNC(=O)c1c(-c2ccc(F)cc2)oc2cc(N(C)S(C)(=O)=O)c(-c3cc(F)c(F)c(-c4nc5ncccc5o4)c3)cc12 [Example 243] — within 1.5-fold, 1.3 nM
- CNC(=O)c1c(-c2ccc(F)cc2)oc2cc(N(C)S(C)(=O)=O)c(-c3cc(F)c(F)c(-c4nc5cccnc5o4)c3)cc12 [Example 244] — within 1.5-fold, 1.3 nM
- CNC(=O)c1c(-c2ccc(F)cc2)oc2cc(N(C)S(C)(=O)=O)c(-c3cc(F)cc(-c4nc5cccnc5s4)c3)cc12 [Example 245] — within 1.5-fold, 2 nM
- CNC(=O)c1c(-c2ccc(F)cc2)oc2cc(N(C)S(C)(=O)=O)c(-c3ccc(F)c(-c4nc5cccnc5s4)c3)cc12 [Example 246] — 2-fold higher, 3.6 nM
- CNC(=O)c1c(-c2ccc(F)cc2)oc2cc(N(C)S(C)(=O)=O)c(-c3cc(OC)cc(-c4nc5cccnc5s4)c3)cc12 [Example 249] — within 1.5-fold, 2.2 nM
- CNC(=O)c1c(-c2ccc(F)cc2)oc2cc(N(C)S(C)(=O)=O)c(-c3cc(-c4nc5cccnc5s4)ccc3OC)cc12 [Example 250] — 2.8-fold higher, 5.1 nM
- CNC(=O)c1c(-c2ccc(F)cc2)oc2cc(N(C)S(C)(=O)=O)c(-c3cccc(-c4nc5ccc(OC)nc5s4)c3)cc12 [Example 251] — 2.2-fold higher, 4 nM
- CNC(=O)c1c(-c2ccc(F)cc2)oc2cc(N(C)S(C)(=O)=O)c(-c3cccc(-c4nc5ccc(=O)[nH]c5s4)c3)cc12 [Example 252] — 43-fold higher, 78.2 nM
- CNC(=O)c1c(-c2ccc(F)cc2)oc2cc(N(C)S(C)(=O)=O)c(-c3ccc(F)c(-c4nc5ncccc5s4)c3)cc12 [Example 260] — 2.1-fold higher, 3.7 nM
- CNC(=O)c1c(-c2ccc(F)cc2)oc2cc(N(C)S(C)(=O)=O)c(-c3cccc(-c4nc5ncc(Cl)cc5s4)c3)cc12 [Example 261] — within 1.5-fold, 2 nM
- CNC(=O)c1c(-c2ccc(F)cc2)oc2cc(N(C)S(C)(=O)=O)c(-c3cccc(-c4nc5cnccc5s4)c3)cc12 [Example 262] — 2.8-fold higher, 5 nM
- CNC(=O)c1c(-c2ccc(F)cc2)oc2cc(N(C)S(C)(=O)=O)c(-c3cccc(-c4nc5ccncc5s4)c3)cc12 [Example 264] — 1.6-fold higher, 2.9 nM
- CNC(=O)c1c(-c2ccc(F)cc2)oc2cc(N(C)S(C)(=O)=O)c(-c3ccc(OC)c(-c4nc5cccnc5s4)c3)cc12 [Example 271] — within 1.5-fold, 1.5 nM
- CNC(=O)c1c(-c2ccc(F)cc2)oc2cc(N(C)S(C)(=O)=O)c(-c3cccc(-c4nc5nccnc5s4)c3)cc12 [Example 272] — 1.7-fold higher, 3 nM
- CNC(=O)c1c(-c2ccc(F)cc2)oc2cc(N(C)S(C)(=O)=O)c(-c3cccc(-c4nc5cncnc5s4)c3)cc12 [Example 273] — within 1.5-fold, 2.2 nM
- CNC(=O)c1c(-c2ccc(F)cc2)oc2cc(N(C)S(C)(=O)=O)c(-c3cccc(-c4nc5c(F)cccc5s4)c3)cc12 [Example 278] — 1.8-fold higher, 3.2 nM
- CNC(=O)c1c(-c2ccc(F)cc2)oc2cc(N(C)S(C)(=O)=O)c(-c3cccc(-c4nc5cccc(F)c5s4)c3)cc12 [Example 279] — 1.8-fold higher, 3.2 nM
